Experimental data taken from patent publication US11576903B2, “Amorphous kinase inhibitor formulations and methods of use thereof” (Deciphera Pharmaceuticals, LLC, priority 2019, dated 2023).
≈ marks a conversion by molar mass, not a printed value.

How the values were obtained:
[1] = Kinetic aqueous solubility at select pH; type: physicochemical; conditions: aqueous medium, kinetic from dmso stock, 25° C.
Method: Solubility of a solid dispersion of amorphous Compound 1 (25%)/HPMCAS-HG as prepared in Example 1, at select pH values was evaluated.

[2] = Pharmacokinetic study after oral administration to rats; conditions: rat, in vivo, 10 mg/kg (Compound 1 basis), oral suspension
Method: Studies comparing the pharmacokinetics of crystalline Compound 1 and solid dispersion of amorphous Compound 1 (25%) as prepared in Example 1 were conducted in rats. The dose in both studies were 10 mg/kg (Compound 1 basis). Rats were administered Crystalline Compound 1 as an oral suspension in a vehicle of 20% Captisol/0.4% HPMC at pH 2. Rats were administered amorphous Compound 1 as an oral suspension using in a 0.5% Methocel vehicle.

solubility kinetic ([1]; aqueous buffer, pH 6.5, aqueous): 1 µg/mL (≈ 1.96 µM) | solubility kinetic ([1]; simulated gastric fluid, pH 2, aqueous): 6 µg/mL (≈ 11.8 µM) | AUC(0-inf) [2]: 131 ng·h/mL | AUC(0-t) [2]: 111 ng·h/mL | Cmax [2]: 20.2 ng/mL | Tmax [2]: 1.67 h | half-life [2]: 8.76 h
SMILES: CCn1c(=O)c(-c2cc(NC(=O)Nc3ccccc3)c(F)cc2Br)cc2cnc(NC)cc21 [Crystalline Compound 1]
